Results taken from paper PMC5703966, “Systemic clearance and brain distribution of carbazole-based cyanine compounds as Alzheimer’s disease drug candidates” (Scientific Reports, 2017).
Read-outs that look alike come from different tables or passages of the source.

Tests used:
[1] = target: T1, BCRP (Homo sapiens, UniProt Q9UNQ0); experiment: Efflux transporter identification in Caco-2 cell with BCRP specific inhibitors; conditions: efflux ratio reduced by fumitremorgin C and Ko134, concentration-dependent
T1 sequence (Q9UNQ0 1-655): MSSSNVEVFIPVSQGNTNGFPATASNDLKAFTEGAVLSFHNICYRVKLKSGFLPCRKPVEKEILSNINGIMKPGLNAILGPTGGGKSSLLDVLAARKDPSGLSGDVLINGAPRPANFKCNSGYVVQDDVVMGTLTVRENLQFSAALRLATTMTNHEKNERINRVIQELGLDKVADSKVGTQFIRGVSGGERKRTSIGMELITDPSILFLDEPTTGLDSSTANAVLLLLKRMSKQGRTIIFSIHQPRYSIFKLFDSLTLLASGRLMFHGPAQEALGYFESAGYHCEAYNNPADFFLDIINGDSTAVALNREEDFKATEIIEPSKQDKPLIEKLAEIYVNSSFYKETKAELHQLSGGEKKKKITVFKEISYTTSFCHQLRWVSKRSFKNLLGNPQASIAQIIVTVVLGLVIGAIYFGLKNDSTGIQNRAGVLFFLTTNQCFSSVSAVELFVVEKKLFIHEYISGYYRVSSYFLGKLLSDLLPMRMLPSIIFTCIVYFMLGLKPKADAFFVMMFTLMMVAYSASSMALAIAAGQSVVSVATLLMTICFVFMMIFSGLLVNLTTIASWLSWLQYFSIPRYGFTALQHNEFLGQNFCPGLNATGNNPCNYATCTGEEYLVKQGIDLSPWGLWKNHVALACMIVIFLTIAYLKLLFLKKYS

[2] = test system: Aβ; set-up: method as in PMID 22086555; conditions: cited from earlier work
[3] = test system: Aβ(1–40); set-up: method as in PMID 22086555; conditions: cited from earlier work
[4] = Plasma binding by RED device; type: in vitro ADME, human; conditions: for plasma binding: human; for f u,plasma %: human plasma, RED device, 4 h, 37 °C; on all read-outs here: tested at 0.4 µM
Procedure: Nonspecific binding in plasma (f u, plasma), microsomes (f u, mic) and hepatocyte (f u, hep) were determined using the method seen in supplemental information (Supplemental Methods). […]
All validation compounds were incubated at 37 °C over 4 h, and in triplicate. For […]
plasma stability, 10 mM DMSO solutions of SLM and SLOH were diluted to 40 µM (10% DMSO). Plasma […]
shaking water bath (60 oscillations/min approx.). The assay was started by addition of 6 µL aliquots to […]
the plasma (final DMSO incubation concentration 0.1%). […]
(§1) MS/MS. Natural logarithm of peak area ratios (compound peak area normalized by IS peak area) were plotted against time and half-life calculated. […]
placed into the sample chamber (indicated by the red ring) with 400 µL of PBS into the adjacent chamber.
The plate was sealed with a self-adhesive lid and incubated at 37 °C on an orbital shaker (1.5 g approx.) for 4 h. Aliquots (100 µL) were removed from each side of the insert, and analyzed after protein precipitation using 4 folds acetonitrile (ACN) containing berberine chloride as internal standard (IS) by LC-MS/MS (Analytical me thod seen below). The experimental procedure outlined in the Thermo Scientific RED device systems brochure was adopted in the present study . […]

[5] = Liver microsomes stability with UDPGA and alamethacin (glucuronidation); type: in vitro ADME; conditions: 0.5 mg/mL microsomes protein, read-out: t 1/2 in liver microsomes with UDPGA and alamethacin
From the text: Microsomes and hepatocytes stability procedures and their parameters (the apparent intrinsic clearance (Cl int,app), unbound apparent intrinsic clearance (Cl u, int,app), scaled intrinsic clearance (Cl int,scaled), unbound scaled intrinsic clearance (Cl u, int,scaled), and Cl hep) calculation methods were shown in supplemental information (Supplemental Methods). The metabolites identification methods including LC-MS conditions was also found in supplemental information (Supplemental Methods). Several marker compounds as quality control were assayed (Table S6).
as §1
In vitro stability in liver microsomes and hepatocytes
Half-life (t1/2) of SLM or SLOH in liver microsomes was determined in duplicate. In phase I reaction, the compound (1 μM) was incubated with liver microsomes (0.5 mg/mL) in 100 mM sodium phosphate buffer (pH 7.4) including 81 mM Na2HPO4 and 19 mM NaH2PO4 ) at 37 °C, the reaction mixture was prewarmed at 37 °C for 2 minutes before adding NADPH (1.0 mM). In phase II reaction, the compound (1 μM) was incubated with liver microsomes (0.5 mg/mL) in 100 mM Tris-HCl buffer (pH 7.4) containing 5 mM MgCl2, 10 μg/mL alamethicin, and 2% (w/v) BSA. After pre-incubated on ice for 15 min, the reactions were initiated with the addition of UDPGA (5.0 mM). Aliquots of the reaction mixture at 0, 5, 10, 15, 30 or 45 minutes were added to 4 folds acetonitrile (ACN) containing internal standard (IS), and the samples were centrifuged at 9,659 g for 5 mins before LC-MS/MS analysis of substrate […]
disappearance. […]
Hepatocytes were suspended at 0.5 × 10^6 viable cells/mL of HT Medium and prewarmed at 37 °C for 10 minutes. Incubations were initiated with the addition of SLM and SLOH (final concentration=1 μM) and were conducted at 37 °C, 75% relative humidity, and 5% CO2. The reaction was stopped at 0, 5, 15, 30, 60, 90, 120 minutes by the addition of 4 folds ACN containing berberine chloride as internal standard

| SMILES | BCRP substrate identification [1] | reduction of Aβ fibrillogenesis in vitro [2] | affinity for Aβ(1–40) [3] | plasma binding [4] [%] | f u,plasma % [4] [%] | half-life at 1 μM ([5]; ICR/CD-1, mouse, pH 7.4, mice) [min] | half-life at 1 μM ([5]; pH 7.4, human) [min] |
| --- | --- | --- | --- | --- | --- | --- | --- |
| COCCOCCn1c2ccccc2c2cc(/C=C/c3cc[n+](C)c4ccccc34)ccc21.[I-] [SLM, (E)-4-(2-(9-(2-(2-methoxyethoxy)ethyl)-9H-carbazol-3-yl)-vinyl)-1-methyl-quinolin-1-iumiodide] | substrates | reduce Aβ fibrillogenesis significantly | reasonably good affinity | > 95 | 0.100 ± 0.0100 | > 500 | > 500 |
| COCCOCCn1c2ccccc2c2cc(/C=C/c3cc[n+](CCO)c4ccccc34)ccc21 [SLOH, (E)-1-(2-hydroxyethyl)-4-(2-(9-(2-(2-metho-xyethoxy)-ethyl)-9H-carbazol-3-yl)vinyl) quinolin-1-ium chloride] | substrates | reduce Aβ fibrillogenesis significantly | reasonably good affinity | > 95 | 0.170 ± 0.0400 | > 500 | > 500 |
